Assay results as given in paper PMC9091350, “Sodium Tanshinone IIA Sulfonate as a Potent IDO1/TDO2 Dual Inhibitor Enhances Anti-PD1 Therapy for Colorectal Cancer in Mice” (Frontiers in Pharmacology, 2022).
One block for each compound: values may come before it.

How the values were obtained:
Type in all cases: biochemical
[1] = target: T1, indoleamine 2,3-dioxygenase 1 (IDO1) (Homo sapiens, UniProt P14902); assay: purified recombinant enzyme assay, kynurenine absorbance at […] nm; also kynurenine reduction in IDO1-293T cells
T1 construct: full-length, N-terminal His-AK tag (His-AK-IDO1)
T1 sequence (P14902 whole entry): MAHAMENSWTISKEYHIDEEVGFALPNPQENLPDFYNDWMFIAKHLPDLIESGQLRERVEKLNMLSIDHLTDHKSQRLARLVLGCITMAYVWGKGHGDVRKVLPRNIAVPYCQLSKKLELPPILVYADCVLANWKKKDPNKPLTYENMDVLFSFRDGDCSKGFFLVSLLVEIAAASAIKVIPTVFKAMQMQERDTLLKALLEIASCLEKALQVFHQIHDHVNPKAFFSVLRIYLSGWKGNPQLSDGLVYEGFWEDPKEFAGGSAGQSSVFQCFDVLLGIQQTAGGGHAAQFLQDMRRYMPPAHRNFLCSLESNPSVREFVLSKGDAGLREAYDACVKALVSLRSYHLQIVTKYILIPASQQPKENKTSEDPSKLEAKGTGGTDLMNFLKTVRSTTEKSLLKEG

[2] = target: T2, tryptophan 2,3-dioxygenase 2 (TDO2) (Homo sapiens, UniProt P48775); assay: purified recombinant enzyme assay, kynurenine absorbance at […] nm; also kynurenine reduction in TDO2-293T cells
T2 sequence (P48775 whole entry): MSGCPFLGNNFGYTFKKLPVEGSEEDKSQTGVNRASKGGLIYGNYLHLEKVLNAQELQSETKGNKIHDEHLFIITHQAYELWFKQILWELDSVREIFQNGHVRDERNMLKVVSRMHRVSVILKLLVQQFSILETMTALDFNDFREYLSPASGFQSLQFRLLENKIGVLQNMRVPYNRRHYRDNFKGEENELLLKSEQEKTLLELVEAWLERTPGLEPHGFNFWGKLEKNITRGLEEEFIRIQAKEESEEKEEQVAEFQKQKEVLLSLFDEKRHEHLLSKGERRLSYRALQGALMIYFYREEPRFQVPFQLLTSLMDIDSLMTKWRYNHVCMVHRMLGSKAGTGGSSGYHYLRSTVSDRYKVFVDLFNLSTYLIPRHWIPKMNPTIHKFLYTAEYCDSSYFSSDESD

[3] = target: T2, tryptophan 2,3-dioxygenase 2 (TDO2); assay: purified recombinant enzyme assay, kynurenine absorbance at […] nm
[4] = target: T1, indoleamine 2,3-dioxygenase 1 (IDO1); assay: purified recombinant enzyme inhibitor screen (compounds at […]), kynurenine absorbance at […] nm

IC50 [1]: < 10 µM
IC50 [2]: < 10 µM
Compound: Cc1c(S(=O)(=O)O)oc2c1C(=O)C(=O)c1c-2ccc2c1CCCC2(C)C [STS, Sodium tanshinone IIA sulfonate]

Compound: Cc1coc2c1C(=O)C(=O)c1c-2ccc2c1CCCC2(C)C [TSN, tanshinone IIA]
purified recombinant enzyme assay, kynurenine absorbance at 490 nm [3]: TSN only reduced the activity of TDO2 but not IDO1 (Figure 1C)

Compound: COc1c(O)cc2oc3cc(O)c(CC=C(C)C)c(O)c3c(=O)c2c1CC=C(C)C [mangostin]
purified recombinant enzyme inhibitor screen (compounds at 10 μM), kynurenine ab [4]: several compounds, including mangostin and androstenedione, could inhibit the activity of IDO1 (Supplementary Figures S1A,B)
